The source of these data is the supplement of paper PMC10307832.

What all share (experiment): relative viability (nuclei count vs DMSO), 5 days (fraction); higher = more cells survive
Compound in the assay “AZ505 + Lapatinib”: C1CCC(CC1)N(CCNCCC2=C3C(=C(C=C2)O)NC(=O)CO3)C(=O)CCNCCC4=CC(=C(C=C4)Cl)Cl [AZ505] + CS(=O)(=O)CCNCc1ccc(-c2ccc3ncnc(Nc4ccc(OCc5cccc(F)c5)c(Cl)c4)c3c2)o1 [Lapatinib] (partner 2 µM)
The procedure, abridged:
(§1)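 Relative viability equals treated-well nuclei counts divided by vehicle-well nuclei counts. Counts came from 4× images of lung cancer cell lines grown in 1536-well plates for 5 days after pin-tool dosing on the day after seeding. Dosing used one drug alone or a fixed anchor-drug dose plus five library-drug doses (not always all listed) in √10 steps, and values are medians of duplicate plates.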

Compound in the assay “AZ505 + Bortezomib”: C1CCC(CC1)N(CCNCCC2=C3C(=C(C=C2)O)NC(=O)CO3)C(=O)CCNCCC4=CC(=C(C=C4)Cl)Cl [AZ505] + CC(C)C[C@H](NC(=O)[C@H](Cc1ccccc1)NC(=O)c1cnccn1)B(O)O [Bortezomib] (partner 0.002 µM)
The procedure, abridged: as §1

Compound in the assay “Dactolisib + Alpelisib”: Cn1c(=O)n(-c2ccc(C(C)(C)C#N)cc2)c2c3cc(-c4cnc5ccccc5c4)ccc3ncc21 [Dactolisib] + Cc1nc(NC(=O)N2CCC[C@H]2C(N)=O)sc1-c1ccnc(C(C)(C)C(F)(F)F)c1 [Alpelisib] (partner 2 µM)
The procedure, abridged:
as §1

Compound in the assay “Dactolisib + OSI-027”: Cn1c(=O)n(-c2ccc(C(C)(C)C#N)cc2)c2c3cc(-c4cnc5ccccc5c4)ccc3ncc21 [Dactolisib] + COc1cccc2cc(-c3nc([C@H]4CC[C@H](C(=O)O)CC4)n4ncnc(N)c34)[nH]c12 [OSI-027] (partner 0.5 µM)
The procedure, abridged: as §1

As to UMC-11, the relative viability was determined as 0.86 with AZ505 + Lapatinib (first compound 0.08 µM); 0.943 with AZ505 + Lapatinib (first compound 0.253 µM); 0.901 with AZ505 + Lapatinib (first compound 0.8 µM); 1.11 with AZ505 + Lapatinib (first compound 2.53 µM); 0.976 with AZ505 + Lapatinib (first compound 8 µM); 0.661 with AZ505 + Bortezomib (first compound 0.08 µM). Moreover, the relative viability is 0.872 in the assay with AZ505 + Bortezomib (first compound 0.253 µM); 0.68 in the assay with AZ505 + Bortezomib (first compound 0.8 µM); 0.734 in the assay with AZ505 + Bortezomib (first compound 2.53 µM); 0.939 with AZ505 + Bortezomib (first compound 8 µM); 0.961 with Dactolisib + Alpelisib (first compound 0.002 µM); 0.852 with Dactolisib + Alpelisib (first compound 0.006325 µM). The relative viability with Dactolisib + Alpelisib (first compound 0.02 µM) worked out at 0.63; with Dactolisib + Alpelisib (first compound 0.06325 µM) it was 0.266; with Dactolisib + Alpelisib (first compound 0.2 µM), 0.243; in the assay with Dactolisib + OSI-027 (first compound 0.002 µM), 0.432; with Dactolisib + OSI-027 (first compound 0.006325 µM), 0.537; in the assay with Dactolisib + OSI-027 (first compound 0.02 µM), 0.394. In addition, the figures for the relative viability in the assay with Dactolisib + OSI-027 (first compound 0.06325 µM) and with Dactolisib + OSI-027 (first compound 0.2 µM) were 0.283 and 0.248, respectively.
